According to patent US6201015A, “Therapeutic method for thrombocytopathy treatment” (priority 1996, dated 2001):
Where two headings read alike, the source gives them in different places. Values belong to the molecule of their own block, whether it stands above or below them.

Assays:
[1] = system: platelets (platelet rich plasma); assay: Antagonistic Action on Inhibition of Platelet Aggregation (ADP-induced, SQ-29548 present, BPS or PGD2 as inhibitor); assay type: cell-based, human (healthy subject); settings: for IC50: Homo sapiens, Platelet, ADP-induced aggregation, SQ-29548
Description: A blood specimen sampled from a healthy subject was centrifuged to thereby separate platelet rich plasma (PRP) and platelet poor plasma (PPP). To the PRP was added SQ-29548, a TXA2 antagonist, and then Compound 1 was added one minute after, beraprost sodium (BPS), a prostacyclin derivative, or prostaglandin D2 (PGD2) was added to the PRP, and 1 minute thereafter, aggregation was induced by ADP. The 50% inhibitory concentration (IC50) of BPS or PGD2 was then calculated from the results. The experiment was performed on one group composed of three specimens. The results are set forth in Tables 3 and 4 (*: P<0.05, Paired t-test).

[2] = system: cAMP in the platelets; assay: cAMP concentration in platelets stimulated with BPS (EIA kit); assay type: cell-based, human (healthy subject); settings: for cyclic AMP (× basal level): SQ-29548, five cases
Description: A blood specimen taken from a healthy subject was centrifuged to thereby separate platelet rich plasma (PRP). To PRP was added SQ-29548, a TXA2 antagonist, and then Compound 1 was added thereto. After 1 minute, BPS (100 nM) was added to PRP, and then the reaction was stopped by 5% TCA. Thereafter, cAMP in the platelets was extracted and the cAMP concentration was determined with an EIA kit (BIOTRAK cAMP EIA SYSTEM, Amersham). The experiment was carried out on one group composed of five cases. The results are shown in Table 5 (*: P<0.05, Paired t-test).

[3] = system: platelets (platelet rich plasma); assay: Action on Platelet Aggregation (3): ADP-induced platelet aggregation in the presence of SQ-29548; assay type: cell-based, human (healthy subject); settings: concentration within the range of 0.1 to 10 μM, Control 38 ± 4.9, *P<0.05 paired t-test
Description: A blood specimen taken from a healthy subject was centrifuged to thereby separate platelet rich plasma (PRP) and platelet poor plasma (PPP). To PRP was added SQ-29548, a TXA2 antagonist, and 1 minute after, platelet aggregation was induced by ADP, and immediately after induction, any of Compounds 2 to 4 having the following structural formulae was added to PRP. The experiment was performed on one group comprising three subjects. The results are set forth in Table 6 (*: P<0.05, Paired t-test).
Compound 2 to 4 were respectively used at a concentration within the range of 0.1 to 10 μM.

[4] = system: platelets; settings: background; cited from earlier work
[5] = system: platelets (platelet rich plasma); assay: Action on Platelet Aggregation (1): aggregation induction in PRP in the presence of SQ-29548; assay type: cell-based, human (healthy subject); settings: for Number of Aggregation Induction: PRP with SQ-29548, three samples
Description: A blood specimen sampled from a healthy subject was centrifuged to thereby separate platelet rich plasma (PRP) and platelet poor plasma (PPP). The agent SQ-29548 (refer to Prostaglandins, 1985;29;785), a TXA2 antagonist, was added to PRP, and 1 minute later, a test drug having the following structure (hereinafter referred to as "Compound 1") was added thereto. The experiment was conducted on one group comprising three samples.

[6] = system: platelets (platelet rich plasma); assay: Action on Platelet Aggregation (2): ADP-induced platelet aggregation in the presence of SQ-29548; assay type: cell-based, human (healthy subject)
Description: A blood specimen sampled from a healthy subject was centrifuged to thereby separate platelet rich plasma (PRP) and platelet poor plasma (PPP). SQ-29548, a TXA2 antagonist, was added to PRP, and 1 minute later, platelet aggregation was induced by ADP, and immediately after induction, Compound 1 was added thereto. The experiment was carried out on one group comprising three samples. The test results are shown in Table 2 (*: P<0.05, Paired t-test).

[7] = background; cited from earlier work
[8] = cited from earlier work
[9] = cited from earlier work; remark: listed apart in the source

IC50 ([1]; Compound 1 0 μM, read-out: IC50 of BPS): 7.99 ± 1.4 nM | IC50 ([1]; in the presence of Compound 1 0.1 μM, read-out: IC50 of BPS): 21.1 ± 4.7 nM | IC50 ([1]; in the presence of Compound 1 1 μM, *P<0.05, read-out: IC50 of BPS): 36.7 ± 7.4 nM
SMILES: CC#CCC(C)[C@H](O)/C=C/[C@@H]1[C@H]2c3cccc(CCCC(=O)O)c3O[C@H]2C[C@H]1O (mixture of isomers) [BPS, beraprost sodium]
cyclic AMP (× basal level) ([2]; BPS 100 nM, Compound 1 0 μM): 8.46 ± 1.8 × basal level

SMILES: CC(C)(Oc1ccccc1)[C@H](O)/C=C/[C@@H]1[C@H]2c3cccc(CCC(=O)O)c3O[C@H]2C[C@H]1O (relative stereo) [Compound 4]
Platelet Aggregation Rate [3]: 54 ± 4.1%

SMILES: CCCCC[C@H](O)/C=C/[C@@H]1[C@@H](CC(=O)CCCCC(=O)O)[C@@H](O)C[C@H]1O [Compound 6-oxo-PGF1a, 6-oxo-PGF1a]
known activity (in words) [4]: almost no physiological activity

SMILES: CC(C)(Oc1ccccc1)[C@H](O)/C=C/[C@@H]1[C@H]2c3cccc(CCC(=O)O)c3O[C@H]2C[C@H]1O [Compound 1]
Number of Aggregation Induction ([5]; Compound 1 0.1 μM): 0 | Number of Aggregation Induction ([5]; Compound 1 1 μM): 0 | Number of Aggregation Induction ([5]; Compound 1 10 μM): 0 | induction of platelet aggregation (in words) ([5]; in the presence of SQ-29548, 0.1-10 μM): did not induce platelet aggregation | Platelet Aggregation Rate ([6]; Compound 1 0.1 μM, without Compound 1: 52.0 ± 2.5, *P<0.05 paired t-test): 61.3 ± 2.9% | Platelet Aggregation Rate ([6]; Compound 1 1 μM, without Compound 1: 52.0 ± 2.5, asterisk not given): 70.0 ± 3.0% | effect on aggregation of platelets (in words) ([6]; Compound 1 0.1 and 1 μM): enhanced aggregation of platelets | antagonism of inhibition of platelet aggregation (in words) ([1]; Compound 1 0.1 and 1 μM against BPS or PGD2): physiologically antagonized inhibitory actions of BPS and PGD2 on platelet aggregation | effect on cAMP production (in words) ([2]; BPS 100 nM, Compound 1 0.1 and 1 μM): inhibited cAMP production of BPS in platelets | cyclic AMP (× basal level) ([2]; Compound 1 0.1 μM with BPS 100 nM, *P<0.05): 6.45 ± 1.4 × basal level | cyclic AMP (× basal level) ([2]; Compound 1 1 μM with BPS 100 nM, *P<0.05): 3.98 ± 0.9 × basal level

IC50 ([1]; Compound 1 0 μM, read-out: IC50 of PGD2): 38.8 ± 2.5 nM | IC50 ([1]; in the presence of Compound 1 0.1 μM, read-out: IC50 of PGD2): 71.2 ± 8.2 nM | IC50 ([1]; in the presence of Compound 1 1 μM, *P<0.05, read-out: IC50 of PGD2): 194 ± 28 nM
SMILES: CCCCC[C@H](O)/C=C/[C@H]1C(=O)C[C@H](O)[C@@H]1C/C=C\CCCC(=O)O [PGD2, prostaglandin D2]

SMILES: NC(=O)CC[C@@H]1NC(=O)[C@H](Cc2ccccc2)NC(=O)[C@H](Cc2ccc(O)cc2)NC(=O)CCSSC[C@@H](C(=O)N2CCC[C@H]2C(=O)N[C@H](CCCN=C(N)N)C(=O)NCC(N)=O)NC(=O)[C@H](CC(N)=O)NC1=O [DDAVP, 1-diamino 8-D-arginine vasopressin]
adverse drug reactions (in words) [7]: may induce arterial thrombosis and/or hyponatremia

SMILES: O=C(O)CCc1cccc2c1OC1CC(O)C(C=CC(O)COc3ccccc3)C21 (centres unmarked) [Compound 3]
Platelet Aggregation Rate [3]: 43 ± 5.3%

SMILES: CCCCC[C@H](O)/C=C/[C@@H]1[C@H]2C/C(=C/CCCC(=O)O)O[C@H]2C[C@H]1O [PGI2, prostaglandin I2]
known activity (in words) [4]: strong antiplatelet activity and telangiectatic activity | stability in neutral aqueous solution (in words) [8]: extremely unstable even in a neutral aqueous solution | stability and duration of activity in vivo (in words) [9]: unstable in vivo and its activity is not long-lasting

SMILES: CCCCC(C)(C)[C@H](O)/C=C/[C@@H]1[C@H]2c3cccc(CCC(=O)O)c3O[C@H]2C[C@H]1O (relative stereo) [Compound 2]
Platelet Aggregation Rate [3]: 45 ± 6.1%
